System: NF-κB signaling pathway in MT373 tumors
Test: MT373 syngeneic sarcoma model: mouse NF-κB signaling pathway profiling panel
Format: in vivo

## CCn1c(C#CCNc2ccccc2)cc2cc(CNC3CCN(C)CC3)ccc21 [Compound 1, 1-Anilino-3-{1-ethyl-5-[(1-methyl-4-piperidylamino)methyl]-1H-indol-2-yl}-2-propyne]
150 mg/kg BIDx1, 24 h
  Agt fold increase over or percent reduction vs vehicle control: 8.18 ± 30.61 fold or %
  Akt1 fold increase over or percent reduction vs vehicle control: 17.84 ± 6.63 fold or %
  Atf1 fold increase over or percent reduction vs vehicle control: 42.27 ± 2.47 fold or %
  Atf2 fold increase over or percent reduction vs vehicle control: 24.19 ± 2.49 fold or %
  Bcl2a1a fold increase over or percent reduction vs vehicle control: 39.52 ± 5.46 fold or %
  Bcl2l1 fold increase over or percent reduction vs vehicle control: 1.43 ± 0.11 fold or %
  Bcl3 fold increase over or percent reduction vs vehicle control: 1.29 ± 0.31 fold or %
  Bcl10 fold increase over or percent reduction vs vehicle control: 38.94 ± 3.05 fold or %
  Birc3 fold increase over or percent reduction vs vehicle control: 1.03 ± 0.07 fold or %
  Card10 fold increase over or percent reduction vs vehicle control: 1.32 ± 0.33 fold or %
  Card11 fold increase over or percent reduction vs vehicle control: 1.14 ± 0.14 fold or %
  Casp1 fold increase over or percent reduction vs vehicle control: 14.78 ± 4.65 fold or %
  Casp8 fold increase over or percent reduction vs vehicle control: 9.24 ± 3.65 fold or %
  Ccl2 fold increase over or percent reduction vs vehicle control: 57.69 ± 14.13 fold or %
  Ccl5 fold increase over or percent reduction vs vehicle control: 21.82 ± 7.86 fold or %
  Cd27 fold increase over or percent reduction vs vehicle control: 1.11 ± 0.11 fold or %
  Cd40 fold increase over or percent reduction vs vehicle control: 30.05 ± 5.34 fold or %
  Cflar fold increase over or percent reduction vs vehicle control: 1.01 ± 0.08 fold or %
  Chuk fold increase over or percent reduction vs vehicle control: 1.03 ± 0.07 fold or %
  Crebbp fold increase over or percent reduction vs vehicle control: 1.07 ± 0.06 fold or %
  Csf1 fold increase over or percent reduction vs vehicle control: 14.27 ± 12.28 fold or %
  Csf2 fold increase over or percent reduction vs vehicle control: 61.29 ± 2.87 fold or %
  Csf3 fold increase over or percent reduction vs vehicle control: 27.25 ± 12.00 fold or %
  Egfr fold increase over or percent reduction vs vehicle control: 28.45 ± 5.44 fold or %
  Egr1 fold increase over or percent reduction vs vehicle control: 37.93 ± 8.71 fold or %
  Eif2ak2 fold increase over or percent reduction vs vehicle control: 1.05 ± 0.10 fold or %
  Elk1 fold increase over or percent reduction vs vehicle control: 12.50 ± 9.71 fold or %
  F2r fold increase over or percent reduction vs vehicle control: 40.30 ± 2.19 fold or %
  Fadd fold increase over or percent reduction vs vehicle control: 5.03 ± 3.48 fold or %
  Fasl fold increase over or percent reduction vs vehicle control: 31.85 ± 3.66 fold or %
  Fos fold increase over or percent reduction vs vehicle control: 12.09 ± 14.97 fold or %
  Hmox1 fold increase over or percent reduction vs vehicle control: 13.99 ± 4.70 fold or %
  Icam1 fold increase over or percent reduction vs vehicle control: 1.20 ± 0.24 fold or %
  Ifng fold increase over or percent reduction vs vehicle control: 35.82 ± 11.11 fold or %
  Ikbkb fold increase over or percent reduction vs vehicle control: 1.13 ± 0.20 fold or %
  Ikbke fold increase over or percent reduction vs vehicle control: 1.48 ± 0.37 fold or %
  Ikbkg fold increase over or percent reduction vs vehicle control: 1.07 ± 0.09 fold or %
  Il1a fold increase over or percent reduction vs vehicle control: 13.50 ± 23.10 fold or %
  Il1b fold increase over or percent reduction vs vehicle control: 63.25 ± 18.78 fold or %
  Il1r1 fold increase over or percent reduction vs vehicle control: 31.14 ± 6.16 fold or %
  Il10 fold increase over or percent reduction vs vehicle control: 1.52 ± 0.15 fold or %
  Irak1 fold increase over or percent reduction vs vehicle control: 1.93 ± 9.47 fold or %
  Irak2 fold increase over or percent reduction vs vehicle control: 24.86 ± 5.53 fold or %
  Irf1 fold increase over or percent reduction vs vehicle control: 4.44 ± 20.95 fold or %
  Jun fold increase over or percent reduction vs vehicle control: 29.31 ± 10.13 fold or %
  Lta fold increase over or percent reduction vs vehicle control: 12.59 ± 29.28 fold or %
  Ltbr fold increase over or percent reduction vs vehicle control: 11.61 ± 7.41 fold or %
  Map3k1 fold increase over or percent reduction vs vehicle control: 1.40 ± 0.14 fold or %
  Mapk3 fold increase over or percent reduction vs vehicle control: 10.05 ± 3.02 fold or %
  Myd88 fold increase over or percent reduction vs vehicle control: 1.33 ± 0.11 fold or %
  Nfkb1 fold increase over or percent reduction vs vehicle control: 1.39 ± 12.08 fold or %
  Nfkb2 fold increase over or percent reduction vs vehicle control: 1.01 ± 0.29 fold or %
  Nfkbia fold increase over or percent reduction vs vehicle control: 3.07 ± 2.68 fold or %
  Nod1 fold increase over or percent reduction vs vehicle control: 1.24 ± 0.24 fold or %
  Raf1 fold increase over or percent reduction vs vehicle control: 11.54 ± 3.56 fold or %
  Rel fold increase over or percent reduction vs vehicle control: 1.09 ± 0.06 fold or %
  Rela fold increase over or percent reduction vs vehicle control: 1.02 ± 0.07 fold or %
  Relb fold increase over or percent reduction vs vehicle control: 1.10 ± 0.14 fold or %
  Ripk1 fold increase over or percent reduction vs vehicle control: 1.25 ± 0.04 fold or %
  Ripk2 fold increase over or percent reduction vs vehicle control: 27.80 ± 7.83 fold or %
  Slc20a1 fold increase over or percent reduction vs vehicle control: 29.02 ± 4.69 fold or %
  Smad3 fold increase over or percent reduction vs vehicle control: 4.92 ± 19.78 fold or %
  Stat1 fold increase over or percent reduction vs vehicle control: 1.17 ± 0.19 fold or %
  Tbk1 fold increase over or percent reduction vs vehicle control: 6.71 ± 4.73 fold or %
  Tlr1 fold increase over or percent reduction vs vehicle control: 1.17 ± 0.16 fold or %
  Tlr2 fold increase over or percent reduction vs vehicle control: 4.13 ± 15.48 fold or %
  Tlr3 fold increase over or percent reduction vs vehicle control: 1.08 ± 0.12 fold or %
  Tlr4 fold increase over or percent reduction vs vehicle control: 1.11 ± 0.05 fold or %
  Tlr6 fold increase over or percent reduction vs vehicle control: 1.04 ± 0.10 fold or %
  Tlr9 fold increase over or percent reduction vs vehicle control: 1.33 ± 0.19 fold or %
  Tnf fold increase over or percent reduction vs vehicle control: 1.84 ± 47.89 fold or %
  Tnfaip3 fold increase over or percent reduction vs vehicle control: 3.01 ± 14.38 fold or %
  Tnfrsf1a fold increase over or percent reduction vs vehicle control: 1.21 ± 0.13 fold or %
  Tnfrsf1b fold increase over or percent reduction vs vehicle control: 1.23 ± 0.12 fold or %
  Tnfrsf10b fold increase over or percent reduction vs vehicle control: 2.61 ± 0.31 fold or %
  Tnfsf10 fold increase over or percent reduction vs vehicle control: 18.51 ± 14.05 fold or %
  Tnfsf14 fold increase over or percent reduction vs vehicle control: 1.11 ± 0.17 fold or %
  Tollip fold increase over or percent reduction vs vehicle control: 1.01 ± 0.06 fold or %
  Tradd fold increase over or percent reduction vs vehicle control: 1.17 ± 0.08 fold or %
  Traf2 fold increase over or percent reduction vs vehicle control: 8.21 ± 7.59 fold or %
  Traf3 fold increase over or percent reduction vs vehicle control: 13.02 ± 10.57 fold or %
  Traf5 fold increase over or percent reduction vs vehicle control: 21.79 ± 2.60 fold or %
  Traf6 fold increase over or percent reduction vs vehicle control: 1.03 ± 0.16 fold or %
  Zap70 fold increase over or percent reduction vs vehicle control: 1.01 ± 0.07 fold or %
150 mg/kg BIDx1, 48 h
  Agt fold increase over or percent reduction vs vehicle control: 1.60 ± 0.41 fold or %
  Akt1 fold increase over or percent reduction vs vehicle control: 4.50 ± 1.92 fold or %
  Atf1 fold increase over or percent reduction vs vehicle control: 42.46 ± 1.99 fold or %
  Atf2 fold increase over or percent reduction vs vehicle control: 30.02 ± 3.86 fold or %

— patent publication US20230049952A1, “METHODS AND COMPOUNDS FOR RESTORING MUTANT P53 FUNCTION” (PMV Pharmaceuticals, Inc., priority 2020, published 2023)
